Like-named read-outs stand apart in the source and are kept apart here.
What was measured:
Format in all cases: cell-based
Bacteria 1 to 5 = test: Antimicrobial activity test (overall statement)
Protocol: The antimicrobial activities of DGE against Escherichia coli W3110 (Bacterium 1), Salmonella typhimurium LT2 (Bacterium 2), Bacillus subtilis IFO3021 (Bacterium 3), Pseudomonas aeruginosa IFO3080 (Bacterium 4) and Streptococcus mutans GS5 (Bacterium 5) were examined as follows.
The Bacteria 1 to 4 were cultured overnight in L-broth. The cultures were diluted to a concentration of about 2×10^5 cells/180 μl with Sensitive Bouillon medium (Nissui) base on the turbidity. The Bacterium 5 was cultured overnight in Brain Heart Infusion medium. The culture was diluted to a concentration of about 2×10^5 cells/180 μl with Brain Heart Infusion medium based on the turbidity. 180 μl of each bacterial dilution was placed in each well of a 96-well microtiter plate. On the other hand, the respective bacterial dilutions were further diluted and spread onto plates of L-broth or Brain Heart Infusion medium. The plates were incubated at 37° C. overnight. The resulting colonies were counted to determine the stating viable cell numbers.
A 14.4 mg/ml DGE solution was diluted every 2-folds to prepare serial dilutions. 20 μl each of the dilutions was placed in the well in which the bacterial dilution had been placed. The cells were cultured at 37° C. for 24 hours without shaking. After cultivation, the turbidity of each culture was measured.
Furthermore, the culture from the well for which the growth of bacterial cells was not observed was spread onto plates. After the plates were incubated at 37° C. overnight, the colony number was counted to determine the viable cell number. […] The minimal growth-inhibitory concentrations and the minimal bacteriocidal concentrations of DGE for the Bacteria 1 to 5 were determined as shown in Table 2.

[1] = test system: Salmonella typhimulium TA1535/pSK1002
Protocol: An antimutagenic activity was determined according to a method for detecting an environmental mutagen by the umu test, which can determine mutagenicity with reference to the β-galactosidase activity (Mutation Research, 147: 219 (1985)). Briefly, 25 μl of mutagen [mitomycin C (a DNA crosslinker) at 10 μg/ml or 4-nitroquinoline-1-oxide (NQO, a DNA methylating agent) at 7 μg/ml] was added to 50 μl of DGE solution at a varying concentration (1.0, 5.0, 10 or 15 mM). A culture of Salmonella typhimulium TA1535/pSK1002 in TGA medium at OD600 of 0.12 was added to the mixture to make the final volume to 1.5 ml. The mixture was then incubated at 37° C. for 2 hours with shaking. 200 μl of the culture was used to measure the β-galactosidase activity according to the method of Miller [Experiments in molecular genetics, pp. 352 (1972)].

[2] = test system: prostaglandin E2 production induced by LPS in RAW264.7 cells; test: Prostaglandin E2 production inhibition test
Protocol: RAW264.7 cells were suspended in Dulbecco's modified Eagle's medium containing 10% fetal bovine serum at a concentration of 3×10^5 cells/ml. 500 μl of the suspension was added to each well of a 48-well microtiter plate and the plate was incubated at 37° C. for 6 hours in the presence of 5% CO2. 10 μl of an aqueous solution prepared by dissolving DGE at a concentration of 0.5 mM in water and sterilizing it by filtration was added to the well. The plate was incubated for additional 0.5 or 5 hours. 10 μl of 50 μg/ml aqueous LPS solution was then added to the well. After the plate was incubated for additional 12 hours, the amount of prostaglandin E2 was measured. As control groups, a group to which LPS was not added and a group to which DGE was not added were provided.
After cultivation, the amount of prostaglandin E2 in the culture supernatant was measured using Prostaglandin E2 ELISA Kit (Neogen, Code. 404110). All of the measurements were carried out in triplicate.
RAW264.7 cells were suspended in Dulbecco's modified Eagle's medium without phenol red containing 10% fetal bovine serum and 2 mM L-glutamine at a concentration of 3×10^5 cells/ml. 500 μl of the suspension was added to each well of a 48-well microtiter plate and the plate was incubated at 37° C. for 12 hours in the presence of 5% CO2. 10 μl of 50 μg/ml aqueous lipoplysaccharide solution and 10 μl of an aqueous solution prepared by dissolving DGE-GSH prepared in Example 13-(1) at a concentration of 1 mM in water and sterilizing it by filtration were then added to the well. After the plate was incubated for additional 16 hours, the amount of prostaglandin E2 was measured. As control groups, a group to which LPS was not added and a group to which DGE-GSH was not added were provided.
After cultivation, the amount of prostaglandin E2 in the culture supernatant was measured using Prostaglandin E2 ELISA Kit (Neogen, Code. 404110).

HL-60 cells = test: Apoptosis induction test
Protocol: (1) HL-60 cells were cultured at 37° C. in RPMI 1640 medium (Bio Whittaker) containing 10% of fetal bovine serum (JRH), which had been treated at 56° C. for 30 minutes, and suspended in RPMI 1640 medium at a concentration of 2.5×10^5 cells/4.5 ml.
500 μl of at 125 μM, 250 μM, 500 μM, 1 mM, 2 mM or 4 mM aqueous DGE solution was added to 4.5 ml of the suspension. The mixtures were incubated at 37° C. for 24 hours in the presence of 5% CO2.
The cultured cells were examined under an optical microscope.
Measurement of apoptotic cells using FACScan as described in Saibo Kogaku, Bessatsu (Cell Technology, Suppl.) Jikken Protocol Series: Apoptosis Jikken Protocol (Experimental Protocol Series: Experimental Protocols for Apoptosis) (Shujun-sha) pp. 129-130 and analysis of DNA fragmentation as described in Bio Manual UP Series: Saishin Apoptosis Jikken-ho (Bio Manual UP Series: Current Experimental Methods for Apoptosis) (Yodo-sha) pp. 61-63 were carried out using cells cultured for 24 or 48 hours in the same manner as that described above.
(2) A portion of the cells cultured for 24 hours as described in Example 2-(1) was stained with 0.4% Trypan Blue and examined under an optical microscope. The number of viable cells which were not stained and the number of dead cells which were stained blue were counted. The concentration of DGE that results in a viability of 50% [Viability50 (μM)] was determined to be 81.7 μM.

5-L-glutathion-S-yl-2-hydroxy-3,7-dioxabicyclo[2.2.2]octan-1-ol [DGE-GSH]
antimicrobial activity (Bacteria 1 to 5): also exhibited similar activities | antimutagenic activity [1]: also exhibited similar activities | prostaglandin E2 concentration in the medium ([2]; LPS, 10 μl of 1 mM DGE-GSH per 500 μl well, 16 hours, control 63.4 ng/ml, no addition 50.3 ng/ml): 50.7 ng/mL

O=C1C=CC(CO)OC1O [DGE, L-glycero-1,5-epoxy-1αβ,6-dihydroxy-cis-hex-3-en-2-one]
antiproliferation activity against tumor cells due to the apoptosis-inducing activity (HL-60 cells): exhibited an antiproliferation activity against tumor cells | DNA fragmentation (HL-60 cells; 24 or 48 hours, DGE at 50 or 100 μM): DNA fragmentation was observed | final concentration at which apoptotic cells were observed (HL-60 cells; 24 or 48 hours, FACScan): ≥ 50 µM | final concentration at which condensation of nuclei, shrinking of cells and formation of apoptotic bodies were observed (HL-60 cells; 24 hours, optical microscope): ≥ 50 µM | IC50 (HL-60 cells; Homo sapiens, 24 hours, Trypan Blue, read-out: Viability50, concentration that results in a viability of 50%): 81.7 µM | antimicrobial activity (Bacteria 1 to 5): exhibited an antimicrobial activity | antimutagenic activity ([1]; against NQO, DGE final concentration 0.5 mM): 36% | antimutagenic activity ([1]; against mitomycin C, DGE final concentration 0.5 mM): 37% | β-Galactosidase activity ([1]; mutagen Mitomycin C, DGE final concentration 0.03 mM, without DGE 611): 590 | β-Galactosidase activity ([1]; mutagen Mitomycin C, DGE final concentration 0.17 mM, without DGE 611): 570 | β-Galactosidase activity ([1]; mutagen Mitomycin C, DGE final concentration 0.33 mM, without DGE 611): 451 | β-Galactosidase activity ([1]; mutagen Mitomycin C, DGE final concentration 0.5 mM, without DGE 611): 383 | β-Galactosidase activity ([1]; mutagen NQO, DGE final concentration 0.03 mM, without DGE 1437): 1376 | β-Galactosidase activity ([1]; mutagen NQO, DGE final concentration 0.17 mM, without DGE 1437): 1212 | β-Galactosidase activity ([1]; mutagen NQO, DGE final concentration 0.33 mM, without DGE 1437): 1038 | β-Galactosidase activity ([1]; mutagen NQO, DGE final concentration 0.5 mM, without DGE 1437): 926 | inhibition of prostaglandin E2 production, 5 hours pre-incubation with DGE compared with 0.5 hour ([2]; DGE added before LPS): stronger inhibition of prostaglandin E2 production | inhibition of prostaglandin E2 production induced by LPS ([2]; ELISA): inhibited the prostaglandin E2 production induced by LPS

O=C1C=CC(CO)OC1O [κ-DGE, D-glycero-1,5-epoxy-1αβ,6-dihydroxy-cis-hex-3-en-2-one]
antiproliferation activity against tumor cells due to the apoptosis-inducing activity (HL-60 cells): exhibited a similar activity | antimicrobial activity (Bacteria 1 to 5): also exhibited similar activities | antimutagenic activity [1]: also exhibited similar activities

Source: patent publication US6531148B1, “Therapeutic agents” (Takara Shuzo Co., Ltd., priority 1998, dated 2003)
